Measured values as given in US20100093076A1, “SOLUBLE IL-27 RECEPTOR” (priority 2006, published 2010).

What was measured:
total human PBMCs = assay: IL-27 EC90 determination, phosphorylated STAT3 in total human PBMCs; assay type: cell-based; settings: read-out: EC90 concentration
Text: (§1) Whole mouse spleens were harvested from C57 B1/6 mice and washed two times with 1×PBS before being plated out at 2×10^5 cells/well in assay media (RPMI 1640 plus 10% fetal bovine serum) in 96-well, round-bottom tissue culture plates. Total human PBMC (peripheral blood mononuclear cells) were thawed from a frozen vial collected from a leukapherisis donation and washed two times with 1×PBS before being plated out at 10^6 cells/well in assay media in 96-well, round-bottom tissue culture plates. […] Following pre-incubation, treatments were added to the plates containing the cells and incubated together at 37° C. for 15 minutes.
(§2) Following incubation, cells were washed with ice-cold wash buffer (BIO-PLEX Cell Lysis Kit, BIO-RAD Laboratories, Hercules, Calif.) and put on ice to stop the reaction according to manufacturer's instructions. […]
(§3) Capture beads (BIO-PLEX Phospho-Stat3 Assay, BIO-RAD Laboratories) were combined with 50 μL of 1:1 diluted lysates and added to a 96-well filter plate according to manufacture's instructions (BIO-PLEX Phosphoprotein Detection Kit, BIO-RAD Laboratories). […] After the final wash, beads were resuspended in 125 μL/well of bead suspension buffer, shaken for 30 seconds, and read on an array reader (BIO-PLEX, BIO-RAD Laboratories) according to the manufacture's instructions. Data were analyzed using analytical software (BIO-PLEX MANAGER 3.0, BIO-RAD Laboratories). […]

mouse spleens = assay: IL-27 EC90 determination, phosphorylated STAT3 in mouse spleens; assay type: cell-based; settings: read-out: EC90 concentration
Text: as §1, §2, §3

EC90 (mouse spleens): 2 nM
Substance: huIL-27: Human IL-27 (R&D Systems)
EC90 (total human PBMCs): 2 nM
